{
  "source": "paper PMC8658016",
  "about": "“Identification of New Compounds with Anticonvulsant and Antinociceptive Properties in a Group of 3-substituted (2,5-dioxo-pyrrolidin-1-yl)(phenyl)-Acetamides” (International Journal of Molecular Sciences, 2021)",
  "key": {"[1]": {"tested_on": "mice", "assay": "Subcutaneous pentylenetetrazole (scPTZ) seizure test", "format": "in vivo, mouse", "settings": "mice i.p."}, "[2]": {"tested_on": "mice", "assay": "Grip strength test (neuromuscular strength)", "format": "in vivo, mouse", "settings": "30 min", "experimental": "Figure 3 Acute effect of compound 14 on the neuromuscular strength in mice. Compound 14 was administered i.p. 30 min before the test. Control animals received vehicle only. Each experimental group consisted of 10 animals. Each bar represents the mean + S.E.M. grip strengths in Newtons per gram of mouse body weight (N/g). * p < 0.05 vs. the control group (one-way ANOVA, followed by Dunnett’s post hoc test, GraphPad Prism 8.0.1).\nIn this study, we used adult male Swiss albino mice (Kołacz, Laboratory Animals Breeding, Warszawa, Poland) license no. 106/2019 (Local Ethical Committee in Lublin). In studies assessing the acute effect of compound 14 on neuromuscular strength, body temperature, and seizure threshold, compound 14 was suspended in a 1% solution of Tween 80 and administered i.p., 30 min before the tests.\nThe acute effect of compound 14 on neuromuscular strength was quantified using the grip-strength apparatus (BIOSEB, Chaville, France) according to the method described elsewhere."}, "[3]": {"tested_on": "TTX-sensitive Na+ channel", "assay": "Radioligand binding, TTX-sensitive Na+ channel", "settings": "rat cerebral cortex"}, "[4]": {"target": "T1, TRPV1 (VR1) (h) (Homo sapiens, UniProt Q8NER1)", "T1 construct": "Cerep Laboratories / Eurofins Panlabs (contract assay)", "T1 sequence (Q8NER1 whole entry)": "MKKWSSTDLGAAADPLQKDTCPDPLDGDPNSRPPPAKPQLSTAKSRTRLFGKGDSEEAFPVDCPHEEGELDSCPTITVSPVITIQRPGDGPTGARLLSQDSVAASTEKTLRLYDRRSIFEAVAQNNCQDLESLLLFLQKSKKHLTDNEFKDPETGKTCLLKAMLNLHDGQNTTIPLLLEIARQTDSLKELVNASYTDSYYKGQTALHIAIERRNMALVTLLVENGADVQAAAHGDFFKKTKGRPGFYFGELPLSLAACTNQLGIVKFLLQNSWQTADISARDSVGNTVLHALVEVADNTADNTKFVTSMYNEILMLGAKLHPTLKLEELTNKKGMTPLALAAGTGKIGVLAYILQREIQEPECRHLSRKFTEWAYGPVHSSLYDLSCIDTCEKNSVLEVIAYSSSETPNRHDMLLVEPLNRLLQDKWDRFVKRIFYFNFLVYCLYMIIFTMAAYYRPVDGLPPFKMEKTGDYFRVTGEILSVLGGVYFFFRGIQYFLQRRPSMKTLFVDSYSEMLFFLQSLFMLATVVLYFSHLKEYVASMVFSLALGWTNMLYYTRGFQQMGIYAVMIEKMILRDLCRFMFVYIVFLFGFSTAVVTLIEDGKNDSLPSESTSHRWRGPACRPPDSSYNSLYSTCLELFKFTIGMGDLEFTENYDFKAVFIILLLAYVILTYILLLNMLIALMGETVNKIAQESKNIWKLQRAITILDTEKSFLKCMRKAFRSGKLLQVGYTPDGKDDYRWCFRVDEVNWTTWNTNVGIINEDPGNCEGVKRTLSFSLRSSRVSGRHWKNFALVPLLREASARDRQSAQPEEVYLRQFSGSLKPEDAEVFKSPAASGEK", "assay": "TRPV1 (VR1) functional assay, antagonist effect", "format": "cell-based", "settings": "HEK293, human recombinant HEK-293 cells, read-out: % Inhibition of Control Agonist Response, TRPV1 (VR1) (h) (antagonist effect)"}, "[5]": {"assay": "Pharmacokinetic study in mice, serum and brain (LC-MS/MS)", "format": "in vivo, mouse", "settings": "for k el: non-compartmental analysis, read-out: λz (converted)", "experimental": "The amount of the target compound in the serum and brain was determined by an LC-MS/MS system. […] The compound also very quickly penetrated to the murine brain and reached the maximum concentration in this organ at 15 min. However, the brain concentrations were lower than those in the serum. The compound was slowly eliminated from the body as its concentrations were still measurable up to 8 h. The terminal slope reflecting the elimination rate from the brain was similar to that observed in the serum. Male CD-1 mice weighting 28–33 g housed in conditions of the constant temperature with a 12:12 h light–dark cycle with free access to food and water were used in this study. The investigated compound was dissolved in sterile water for injection (Polpharma, Poland) and administered i.p. at a dose of 40 mg/kg. The mice were sacrificed by decapitation under isoflurane anesthesia. Blood samples were collected at 5, 15, 30, 60, 120, 240, and 480 min after dosing and brains were harvested at the same time points. Blood was allowed to clot at room temperature for 20 min and serum was separated by centrifugation at 3000 rpm for 10 min (Eppendorf MiniSpin centrifuge, Germany). The samples were stored at −80 °C until analysis. All animal procedures were approved by the First Ethical Committee on Animal Experimentation in Krakow, Poland (no. 270/2019). Concentrations of compound 14 in mouse brains and serum were measured by liquid chromatography tandem mass spectrometry (LC-MS/MS) method using SCIEX QTRAP 4500 triple quadrupole mass spectrometer coupled to Excion LC AC HPLC system (both from Danaher Corporation, Washington, DC, USA). Chromatographic separation was carried out on the Hypersil GoldTM C18 analytical column (2.1 × 50 mm, 3 µm, Thermo Scientific, USA) with the oven temperature set at 40 °C. […] The remaining time of elution was set at 95% B. The whole HPLC operation lasted 10 min. Electrospray ionization (ESI) in the positive ion mode was used for ion production. The tandem mass spectrometer was operated at unit resolution in the selected reaction monitoring mode (SRM), monitoring the transition of the protonated molecular ions m/z 489 to 132 (CE = 65 eV) and m/z 489 to 231 (CE = 29 eV) for compound 14 (first pair was used as a quantifier and the second for the identity verification qualifier) and m/z 436 to 235 (CE = 42 eV) for an internal standard (valsartan). The mass spectrometric conditions were optimized by continuous infusion of the standard solution at the rate of 7 μL/min using a Harvard infusion pump. The ion source temperature was maintained at 450 °C and the ion spray voltage was set at 5500 V. The curtain gas (CUR) was set at 40 psi and the collision gas (CAD) at medium. Data acquisition and processing were accomplished using the Analyst version 1.7 software. The calibration curves were constructed by plotting the ratio of the peak area of the studied compound to internal standard (IS) versus drug concentration and generated by weighted (1/x·x) linear regression analysis. The validated quantitation ranges for this method were within the expected concentration ranges, namely, from 0.1 to 20 µg/mL of serum and from 0.05 to 10 µg/g of brain tissue with accuracy from 93.73 to 104.29% and from 88.33 to 107% for serum and brain, respectively. No significant matrix effect was observed and there were no stability-related problems during the routine analysis of the samples. The brains were homogenized in distilled water at the ratio of 1:4 (w/v) with a tissue homogenizer LabGEN 125 (Cole-Parmer, Vernon Hills, IL, USA). […] Serum supernatant was additionally diluted 10 times with the deproteinization solution. Then, brain or serum supernatants were transferred into the autosampler vials. The autosampler temperature was maintained at 15 °C and a sample volume of 2 μL was injected into the LC-MS/MS system."}, "[6]": {"tested_on": "hepatoma HepG2 cells", "assay": "Hepatotoxicity, HepG2 viability (MTS)", "format": "cell-based", "settings": "72 h; viability affected at 100 µM only"}, "[7]": {"assay": "SH-SY5Y viability (MTS)", "format": "cell-based", "settings": "human, neuroblastoma SH-SY5Y cells"}, "[8]": {"assay": "in vivo", "settings": "male, CD-1, mouse, ip"}, "[9]": {"tested_on": "Cav1.2 channel (dihydropyridine site, antagonist radioligand)", "assay": "Radioligand binding, Cav1.2 channel (dihydropyridine site)", "settings": "rat cerebral cortex"}, "[10]": {"settings": "male, CD-1, mouse, ip, brain, mice, 40 mg/kg i.p."}, "[11]": {"settings": "male, CD-1, mouse, ip, serum, mice, 40 mg/kg i.p."}},
  "note": "Where two headings read alike, the source gives them in different places.",
  "data": [
    {"compound": "CN(C)C1CC(=O)N(C(C(=O)N2CCN(c3cccc(C(F)(F)F)c3)CC2)c2ccccc2)C1=O.Cl", "note": "(stereo not drawn) [Compound 14, 3-(Dimethylamino)-1-(2-oxo-1-phenyl-2-(4-(3-(trifluoromethyl)phenyl)-piperazin-1-yl)ethyl)pyrrolidine-2,5-dione hydrochloride]", "values": [
      {"measurement": "ED50", "setting": "[1]; Mus musculus, ip, 95% confidence interval in parentheses", "result": 67.4, "unit": "mg/kg"},
      {"measurement": "scPTZ screening: number of mice protected / number of mice tested", "setting": "[1]; 100 mg/kg, 0.5 h", "result": "2/4"},
      {"measurement": "effect on neuromuscular strength (grip strength)", "setting": "[2]; 30 mg/kg i.p.", "result": "did not significantly affect"},
      {"measurement": "effect on grip strength", "setting": "[2]; 60 mg/kg i.p., p < 0.05 (Dunnett)", "result": "significantly decreased"},
      {"measurement": "% Inhibition of Control-Specific Binding, TTX-sensitive Na+ channel", "setting": "[3]; 10 µM", "result": 31.0, "unit": "%"},
      {"measurement": "% Inhibition of Control-Specific Binding, TTX-sensitive Na+ channel", "setting": "[3]; 50 µM", "result": 90.3, "unit": "%"},
      {"measurement": "inhibition at 10 µM", "setting": "[4]; 10 µM", "result": 17.3, "unit": "%"},
      {"measurement": "inhibition at 50 µM", "setting": "[4]; 50 µM", "result": 88.8, "unit": "%"},
      {"measurement": "AUC0-∞", "setting": "[5]; brain, mice, 40 mg/kg i.p.", "result": "413.17 µg⋅min/mL(g)"},
      {"measurement": "Cmax", "setting": "[5]; brain, mice, 40 mg/kg i.p.", "result": "5.32 µg/mL(g)"},
      {"measurement": "t0.5λz", "setting": "[5]; brain, mice, 40 mg/kg i.p.", "result": 66.14, "unit": "min"},
      {"measurement": "Kp", "setting": "[5]; male, CD-1, mouse, brain and serum, ip, mice, 40 mg/kg i.p., read-out: brain-to-serum AUC ratio", "result": "≤ 0.3"},
      {"measurement": "concentration at 30 min", "setting": "[5]; male, CD-1, mouse, brain, ip, 40 mg/kg, mice i.p., calculated for the free base, read-out: C30 min. in the brain", "result": 7.2, "unit": "µM"},
      {"measurement": "Cmax", "setting": "[5]; male, CD-1, mouse, brain, ip, 40 mg/kg, mice i.p., calculated for the free base, read-out: Cmax in the brain", "result": 10.9, "unit": "µM"},
      {"measurement": "concentration at 30 min", "setting": "[5]; male, CD-1, mouse, brain, ip, mice, 40 mg/kg i.p., read-out: brain level 30 min post-dose", "result": "3500 ± 990", "unit": "ng/g"},
      {"measurement": "MRT", "setting": "[5]; [10]", "result": 89.2, "unit": "min"},
      {"measurement": "Tmax", "setting": "[5]; [10]", "result": 15, "unit": "min"},
      {"measurement": "k el", "setting": "[5]; [10]", "result": 0.000183, "unit": "s⁻¹"},
      {"measurement": "CL/F", "setting": "[5]; [11]", "result": 27, "unit": "mL/min/kg"},
      {"measurement": "MRT", "setting": "[5]; [11]", "result": 93.5, "unit": "min"},
      {"measurement": "Tmax", "setting": "[5]; [11]", "result": 5, "unit": "min"},
      {"measurement": "k el", "setting": "[5]; [11]", "result": 0.000183, "unit": "s⁻¹"},
      {"measurement": "concentration at 30 min", "setting": "[5]; male, CD-1, mouse, serum, ip, 40 mg/kg, mice i.p., calculated for the free base, read-out: C30 min. in serum", "result": 24.3, "unit": "µM"},
      {"measurement": "Cmax", "setting": "[5]; male, CD-1, mouse, serum, ip, 40 mg/kg, mice i.p., calculated for the free base, read-out: Cmax in serum", "result": 41.1, "unit": "µM"},
      {"measurement": "brain concentration 15 min after administration (highest)", "setting": "[5]; mice, 40 mg/kg i.p.", "result": "5.32 ± 0.54", "unit": "µg/g tissue"},
      {"measurement": "AUC0-∞", "setting": "[5]; serum, mice, 40 mg/kg i.p.", "result": "1451.22 µg⋅min/mL(g)"},
      {"measurement": "Cmax", "setting": "[5]; serum, mice, 40 mg/kg i.p.", "result": "20.06 µg/mL(g)"},
      {"measurement": "V/F", "setting": "[5]; serum, mice, 40 mg/kg i.p.", "result": 2.57, "unit": "L/kg"},
      {"measurement": "t0.5λz", "setting": "[5]; serum, mice, 40 mg/kg i.p.", "result": 64.65, "unit": "min"},
      {"measurement": "hepatotoxicity (HepG2 viability)", "setting": "[6]", "result": "generally non-toxic"},
      {"measurement": "viability at 72 h, 0.001 µM", "setting": "[7]; 0.001 µM, read-out: SH-SY5Y cell viability, % of the control", "result": "≤ 120", "unit": "%"},
      {"measurement": "viability at 72 h, 10 µM", "setting": "[7]; 10 µM, read-out: SH-SY5Y cell viability, % of control", "result": 140, "unit": "%"},
      {"measurement": "melting point", "result": "157.8 to 159.2", "unit": "°C"},
      {"measurement": "TD50", "setting": "[8]", "result": 169, "unit": "mg/kg"},
      {"measurement": "% Inhibition of Control-Specific Binding, Cav1.2 channel (dihydropyridine site, antagonist radioligand)", "setting": "[9]; 10 µM", "result": 6.0, "unit": "%"},
      {"measurement": "% Inhibition of Control-Specific Binding, Cav1.2 channel (dihydropyridine site, antagonist radioligand)", "setting": "[9]; 50 µM", "result": 75.4, "unit": "%"}
    ]}
  ]
}
